Patent US11596614B2, “Treatment of intrahepatic cholestatic diseases” (CymaBay Therapeutics, Inc., priority 2014, dated 2023)

How the values were obtained:
[1] = system: subjects with mixed dyslipidemia; conditions: cited from earlier work
[2] = Preclinical elimination study; type: in vivo
[3] = gradient-gel electrophoresis, cited from earlier work
subjects with PBC = experiment: Example 1: trial in subjects with PBC on UDCA; type: in vivo, human; conditions: on treatment, 50 or 200 mg/day
Excerpt: The trial subjects were adult, male or female, with a diagnosis of PBC by at least two of the following three criteria: (a) a history of alkaline phosphatase (ALP) above the upper limit of normal (ULN) for at least six months, (b) positive anti-mitochondrial antibody titers> 1/40 on immunofluorescence or M2 positive by enzyme linked immunosorbent assay or positive PBC-specific antinuclear antibodies, and (c) documented liver biopsy result consistent with PBC, on a stable and recommended dose of UDCA for the past twelve months, and ALP≥1.67×ULN. Exclusion criteria included AST or ALT≥3×ULN, total bilirubin (TBIL)≥2×ULN, autoimmune hepatitis or a history of chronic viral hepatitis, PSC, the current use of fibrates or simvastatin, the use of colchicine, methotrexate, azathioprine, or systemic steroids in the previous two months, the use of an experimental treatment for PBC, and the use of an experimental or unapproved immunosuppressant. The primary study endpoint was decrease in ALP, and the secondary endpoint was the responder rate for subjects achieving ALP<1.67×ULN and total bilirubin within normal limit, and >15% decrease in ALP. […] According to the original statistical plan, changes in ALP were calculated using the last observation carried forward. […]

[4] = system: subjects with an intrahepatic cholestatic disease such as PBC; experiment: Example 2: treatment of adult subjects with an intrahepatic cholestatic disease such as PBC; type: in vivo, human; conditions: 5, 10, 25, or 50 mg/day orally
Description: Subjects are permitted their usual other medications, including UDCA. […] At each visit, after a 12-hour fast, blood is drawn and urine collected; and a standard metabolic panel, complete blood count, and standard urinalysis are performed. Blood is analyzed for TC, HDL-C, TG, VLDL-C, LDL-C, and apolipoprotein B, for liver function markers such as total and bone-specific alkaline phosphatases, for γ-glutamyl transpeptidase, and also for total and conjugated bilirubin. The subjects also maintain health diaries, which are reviewed at each visit.

PPARa = molecular target: T1, PPARa (Homo sapiens, UniProt Q07869); experiment: Specificity for PPARδ compared with PPARa; type: biochemical
T1 sequence (Q07869 1-468): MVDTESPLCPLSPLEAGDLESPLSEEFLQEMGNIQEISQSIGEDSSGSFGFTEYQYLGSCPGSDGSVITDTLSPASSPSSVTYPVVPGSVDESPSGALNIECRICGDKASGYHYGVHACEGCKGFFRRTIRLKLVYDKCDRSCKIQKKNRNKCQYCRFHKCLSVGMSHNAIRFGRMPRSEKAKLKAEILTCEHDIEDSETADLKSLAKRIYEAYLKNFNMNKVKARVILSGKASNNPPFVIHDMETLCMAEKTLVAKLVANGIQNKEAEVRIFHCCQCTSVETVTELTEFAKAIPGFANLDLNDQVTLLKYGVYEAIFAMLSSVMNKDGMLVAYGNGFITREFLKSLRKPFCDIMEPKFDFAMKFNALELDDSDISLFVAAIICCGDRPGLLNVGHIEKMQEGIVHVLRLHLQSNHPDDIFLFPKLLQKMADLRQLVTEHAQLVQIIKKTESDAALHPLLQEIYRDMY
Excerpt: It is specific (>600-fold and >2500-fold compared with PPARa and peroxisome proliferator-activated receptor-γ receptors). PPARδ activation stimulates fatty acid oxidation and utilization, improves plasma lipid and lipoprotein metabolism, glucose utilization, and mitochondrial respiration, and preserves stem cell homeostasis.

[5] = once daily oral, 8 weeks, seladelpar 50 or 100 mg, ATV 20 mg

SMILES	decrease of large LDL particles ([1]; once daily oral, 8 weeks, ATV 20 mg) [%]	decrease of small/very small LDL particles [1, 5]	distribution of drug in bile [2]	conversion of LDL particle size pattern B (predominant LDL particle size less than 25.75 nm) [3]	conversion of LDL particle size pattern I (predominant LDL particle size 25.75 nm to 26.34 nm) ([3]; pattern A = predominant LDL particle size greater than 26.34 nm)	adverse events of pruritus (subjects with PBC)	improvement in disease (ALP and GGT) [4]	specificity for PPARδ compared with PPARa (PPARa) [fold]	safety and tolerability ([1]; 50 or 100 mg once daily oral, 8 weeks)	reduction of high-sensitivity C-reactive protein ([1]; compared to placebo, seladelpar 50 or 100 mg once daily oral alone and in combination with ATV 20 mg, 8 weeks, P<0.05)	raise of HDL-C ([1]; compared to placebo, seladelpar 50 or 100 mg once daily oral alone and in combination with ATV 20 mg, 8 weeks)	reduction of the percentage of subjects meeting the criteria for metabolic syndrome ([1]; mixed dyslipidemia) [fold]	increase of large LDL particles ([1]; once daily oral, 8 weeks, seladelpar 50 or 100 mg)
CC(C)c1c(C(=O)Nc2ccccc2)c(-c2ccccc2)c(-c2ccc(F)cc2)n1CC[C@@H](O)C[C@@H](O)CC(=O)O [ATV, atorvastatin, reference compound]	30	25%	–	–	–	–	–	–	–	–	–	–	–
CCO[C@H](COc1ccc(C(F)(F)F)cc1)CSc1ccc(OCC(=O)O)c(C)c1 [Seladelpar, (R)-2-(4-((2-ethoxy-3-(4-(trifluoromethyl)phenoxy)propyl)thio)-2-methylphenoxy)acetic acid]	–	40-48%	concentrated in bile	to pattern I or A	to pattern A	no adverse events of pruritus were reported	a decrease in ALP and GGT	> 600	safe and generally well-tolerated	43-72%	1-12%	> 2	34-44%
